Data published in patent publication US7728003B2, “5-oxo-5,8-dihydro-pyrido-pyrimidines as inhibitors of c-fms kinase” (Janssen Pharmaceutica N.V., priority 2005, dated 2010).

Biological target: c-fms (Homo sapiens, UniProt P07333)
Assay: c-fms autophosphorylation, fluorescence polarization competition immunoassay
Format: biochemical
Conditions: 10 nM c-fms, 1 mM ATP; for inhibition at 0.1 µM: test concentration 0.1 μM, read-out: c-fms Autophosphorylation Percent Inhibition, % @ 0.1 μM; for inhibition at 1 µM: test concentration 1 μM, read-out: c-fms Autophosphorylation Percent Inhibition, % @ 1 μM
Procedure: The assay buffer used was 100 mM 4-(2-hydroxyethyl)piperazine 1-ethanesulfonic acid (HEPES), pH 7.5, 1 mM 1,4-dithio-DL-threitol (DTT), 0.01% (v/v) Tween-20. Compounds were diluted in assay buffer containing 4% dimethylsulfoxide (DMSO) just prior to the assay. To each well, 5 μL of compound were added followed by the addition of 3 μL of a mix containing 33 nM c-fms and 16.7 mM MgCl2 (Sigma) in assay buffer. The kinase reaction was initiated by adding 2 μL of 5 mM ATP (Sigma) in assay buffer. The final concentrations in the assay were 10 nM c-fms, 1 mM ATP, 5 mM MgCl2, 2% DMSO. Control reactions were ran in each plate: in positive and negative control wells, assay buffer (made 4% in DMSO) was substituted for the compound; in addition, positive control wells received 1.2 μL of 50 mM ethylenediaminetetraaceticacid (EDTA).
The plates were incubated at room temperature for 45 min. At the end of the incubation, the reaction was quenched with 1.2 μL of 50 mM EDTA (EDTA was not added to the positive control wells at this point; see above). Following a 5-min incubation, each well received 10 μL of a 1:1:3 mixture of anti-phosphotyrosine antibody, 10X, PTK green tracer, 10X (vortexed), FP dilution buffer, respectively (all from PanVera, cat. # P2837). The plate was covered, incubated for 30 min at room temperature and the fluorescence polarization was read on the Analyst. The instrument settings were: 485 nm excitation filter; 530 nm emission filter; Z height: middle of well; G factor: 0.93.
The percent inhibition is shown in Table 1 at the indicated test concentration. The IC50 shown in Table 2 are averages of three independent measurements.

Sequence of c-fms (P07333 20-972): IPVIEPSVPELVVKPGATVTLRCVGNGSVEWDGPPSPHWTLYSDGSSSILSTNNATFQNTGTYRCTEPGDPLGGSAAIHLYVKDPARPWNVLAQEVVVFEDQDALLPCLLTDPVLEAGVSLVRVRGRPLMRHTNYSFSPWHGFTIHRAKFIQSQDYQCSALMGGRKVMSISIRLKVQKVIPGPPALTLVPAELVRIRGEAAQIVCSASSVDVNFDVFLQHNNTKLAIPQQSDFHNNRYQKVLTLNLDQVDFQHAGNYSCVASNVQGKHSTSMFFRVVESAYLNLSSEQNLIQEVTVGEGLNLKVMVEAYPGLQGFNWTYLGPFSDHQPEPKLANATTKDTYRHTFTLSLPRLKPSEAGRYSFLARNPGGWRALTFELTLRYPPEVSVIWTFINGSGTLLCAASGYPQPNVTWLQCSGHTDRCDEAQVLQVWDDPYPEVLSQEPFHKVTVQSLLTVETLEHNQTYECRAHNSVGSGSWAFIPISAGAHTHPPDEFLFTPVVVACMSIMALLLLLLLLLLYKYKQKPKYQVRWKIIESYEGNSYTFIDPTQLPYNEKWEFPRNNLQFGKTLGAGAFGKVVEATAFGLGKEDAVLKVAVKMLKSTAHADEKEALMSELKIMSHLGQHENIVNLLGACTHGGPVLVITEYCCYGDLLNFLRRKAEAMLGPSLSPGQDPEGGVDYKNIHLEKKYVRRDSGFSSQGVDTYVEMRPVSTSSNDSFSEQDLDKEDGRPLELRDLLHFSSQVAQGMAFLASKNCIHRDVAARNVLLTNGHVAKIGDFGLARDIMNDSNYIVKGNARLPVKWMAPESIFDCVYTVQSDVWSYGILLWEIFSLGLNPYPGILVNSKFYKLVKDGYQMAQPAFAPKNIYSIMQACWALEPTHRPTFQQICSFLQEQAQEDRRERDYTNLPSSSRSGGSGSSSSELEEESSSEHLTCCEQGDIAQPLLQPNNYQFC

CONC(=O)c1cn(-c2ccc3c(c2)CCC3)c2nc(NCCN3CCCCC3)ncc2c1=O [Cpd 25, 8-Indan-5-yl-5-oxo-2-(2-piperidin-1-yl-ethylamino)-5,8-dihydro-pyrido[2,3-d]pyrimidine-6-carboxylic acid methoxy-amide]
inhibition at 0.1 µM: 6%
inhibition at 1 µM: 30%

CONC(=O)c1cn(-c2ccc3c(c2)CCC3)c2nc(NCc3cc(OC)cc(OC)c3)ncc2c1=O [Cpd 27, 2-(3,5-Dimethoxy-benzylamino)-8-indan-5-yl-5-oxo-5,8-dihydro-pyrido[2,3-d]pyrimidine-6-carboxylic acid methoxy-amide]
inhibition at 0.1 µM: 15%
inhibition at 1 µM: 41%

CNC(=O)c1cn(C2CCCCC2)c2nc(NCCOC)ncc2c1=O [Cpd 57, 8-Cyclohexyl-2-(2-methoxy-ethylamino)-5-oxo-5,8-dihydro-pyrido[2,3-d]pyrimidine-6-carboxylic acid methylamide]
inhibition at 0.1 µM: 16%
inhibition at 1 µM: 20%

CONC(=O)c1cn(C2CCCCC2)c2nc(NCCN3CCCC3)ncc2c1=O [Cpd 48, 8-Cyclohexyl-5-oxo-2-(2-pyrrolidin-1-yl-ethylamino)-5,8-dihydro-pyrido[2,3-d]pyrimidine-6-carboxylic acid methoxy-amide]
inhibition at 0.1 µM: 0%
inhibition at 1 µM: 18%

CN(C)CCCNc1ncc2c(=O)c(C(N)=O)cn(C3CCCCC3)c2n1 [Cpd 29, 8-Cyclohexyl-2-(3-dimethylamino-propylamino)-5-oxo-5,8-dihydro-pyrido[2,3-d]pyrimidine-6-carboxylic acid amide]
inhibition at 0.1 µM: 22%
inhibition at 1 µM: 65%

CNC(=O)c1cn(C2CCCCC2)c2nc(NCCc3ccc(OC)cc3)ncc2c1=O [Cpd 58, 8-Cyclohexyl-2-[2-(4-methoxy-phenyl)-ethylamino]-5-oxo-5,8-dihydro-pyrido[2,3-d]pyrimidine-6-carboxylic acid methylamide]
inhibition at 0.1 µM: 13%
inhibition at 1 µM: 26%

COc1ccc(CCNc2ncc3c(=O)c(C(N)=O)cn(C4CCCCC4)c3n2)cc1 [Cpd 37, 8-Cyclohexyl-2-[2-(4-methoxy-phenyl)-ethylamino]-5-oxo-5,8-dihydro-pyrido[2,3-d]pyrimidine-6-carboxylic acid amide]
inhibition at 0.1 µM: 29%
inhibition at 1 µM: 41%

NC(=O)c1cn(C2CCCCC2)c2nc(NCCN3CCOCC3)ncc2c1=O [Cpd 39, 8-Cyclohexyl-2-(2-morpholin-4-yl-ethylamino)-5-oxo-5,8-dihydro-pyrido[2,3-d]pyrimidine-6-carboxylic acid amide]
inhibition at 0.1 µM: 21%
inhibition at 1 µM: 59%

NC(=O)c1cn(C2CCCCC2)c2nc(NCCN3CCCC3)ncc2c1=O [Cpd 36, 8-Cyclohexyl-5-oxo-2-(2-pyrrolidin-1-yl-ethylamino)-5,8-dihydro-pyrido[2,3-d]pyrimidine-6-carboxylic acid amide]
inhibition at 0.1 µM: 5%
inhibition at 1 µM: 49%

NC(=O)c1cn(C2CCCCC2)c2nc(NCCCN3CCCC3=O)ncc2c1=O [Cpd 32, 8-Cyclohexyl-5-oxo-2-[3-(2-oxo-pyrrolidin-1-yl)-propylamino]-5,8-dihydro-pyrido[2,3-d]pyrimidine-6-carboxylic acid amide]
inhibition at 0.1 µM: 17%
inhibition at 1 µM: 52%

CNC(=O)c1cn(C2CCCCC2)c2nc(NCCCN3CCOCC3)ncc2c1=O [Cpd 55, 8-Cyclohexyl-2-(3-morpholin-4-yl-propylamino)-5-oxo-5,8-dihydro-pyrido[2,3-d]pyrimidine-6-carboxylic acid methylamide]
inhibition at 0.1 µM: 13%
inhibition at 1 µM: 23%

COCCCNc1ncc2c(=O)c(C(=O)NOC)cn(-c3ccc4c(c3)CCC4)c2n1 [Cpd 21, 8-Indan-5-yl-2-(3-methoxy-propylamino)-5-oxo-5,8-dihydro-pyrido[2,3-d]pyrimidine-6-carboxylic acid methoxy-amide]
inhibition at 0.1 µM: 50%
inhibition at 1 µM: 82%

CONC(=O)c1cn(-c2ccc3c(c2)CCC3)c2nc(NCCCN3CCCC3=O)ncc2c1=O [Cpd 22, 8-Indan-5-yl-5-oxo-2-[3-(2-oxo-pyrrolidin-1-yl)-propylamino]-5,8-dihydro-pyrido[2,3-d]pyrimidine-6-carboxylic acid methoxy-amide]
inhibition at 0.1 µM: 40%
inhibition at 1 µM: 72%

CNC(=O)c1cn(-c2ccc3c(c2)CCC3)c2nc(NCCc3ccc(OC)cc3)ncc2c1=O [Cpd 17, 8-Indan-5-yl-2-[2-(4-methoxy-phenyl)-ethylamino]-5-oxo-5,8-dihydro-pyrido[2,3-d]pyrimidine-6-carboxylic acid methylamide]
inhibition at 0.1 µM: 15%
inhibition at 1 µM: 36%

CNC(=O)c1cn(C2CCCCC2)c2nc(NCc3cc(OC)cc(OC)c3)ncc2c1=O [Cpd 61, 8-Cyclohexyl-2-(3,5-dimethoxy-benzylamino)-5-oxo-5,8-dihydro-pyrido[2,3-d]pyrimidine-6-carboxylic acid methylamide]
inhibition at 0.1 µM: 3%
inhibition at 1 µM: 21%

CNC(=O)c1cn(C2CCCCC2)c2nc(NCCCOC)ncc2c1=O [Cpd 56, 8-Cyclohexyl-2-(3-methoxy-propylamino)-5-oxo-5,8-dihydro-pyrido[2,3-d]pyrimidine-6-carboxylic acid methylamide]
inhibition at 0.1 µM: 6%
inhibition at 1 µM: 23%

CONC(=O)c1cn(C2CCCCC2)c2nc(NCCCN(C)C)ncc2c1=O [Cpd 42, 8-Cyclohexyl-2-(3-dimethylamino-propylamino)-5-oxo-5,8-dihydro-pyrido[2,3-d]pyrimidine-6-carboxylic acid methoxy-amide]
inhibition at 0.1 µM: 17%
inhibition at 1 µM: 40%

COCCNc1ncc2c(=O)c(C(=O)NOC)cn(C3CCCCC3)c2n1 [Cpd 47, 8-Cyclohexyl-2-(2-methoxy-ethylamino)-5-oxo-5,8-dihydro-pyrido[2,3-d]pyrimidine-6-carboxylic acid methoxy-amide]
inhibition at 0.1 µM: 31%
inhibition at 1 µM: 57%

COCCNc1ncc2c(=O)c(C(N)=O)cn(C3CCCCC3)c2n1 [Cpd 35, 8-Cyclohexyl-2-(2-methoxy-ethylamino)-5-oxo-5,8-dihydro-pyrido[2,3-d]pyrimidine-6-carboxylic acid amide]
inhibition at 0.1 µM: 29%
inhibition at 1 µM: 67%

COCCNc1ncc2c(=O)c(C(N)=O)cn(-c3ccc4c(c3)CCC4)c2n1 [Cpd 10, 8-Indan-5-yl-2-(2-methoxy-ethylamino)-5-oxo-5,8-dihydro-pyrido[2,3-d]pyrimidine-6-carboxylic acid amide]
inhibition at 0.1 µM: 16%
inhibition at 1 µM: 41%

CNC(=O)c1cn(C2CCCCC2)c2nc(NCCN3CCCCC3)ncc2c1=O [Cpd 59, 8-Cyclohexyl-5-oxo-2-(2-piperidin-1-yl-ethylamino)-5,8-dihydro-pyrido[2,3-d]pyrimidine-6-carboxylic acid methylamide]
inhibition at 0.1 µM: 5%
inhibition at 1 µM: 11%

CONC(=O)c1cn(C2CCCCC2)c2nc(NCCc3ccc(OC)cc3)ncc2c1=O [Cpd 49, 8-Cyclohexyl-2-[2-(4-methoxy-phenyl)-ethylamino]-5-oxo-5,8-dihydro-pyrido[2,3-d]pyrimidine-6-carboxylic acid methoxy-amide]
inhibition at 0.1 µM: 38%
inhibition at 1 µM: 68%

CNC(=O)c1cn(C2CCCCC2)c2nc(NCCCn3ccnc3)ncc2c1=O [Cpd 53, 8-Cyclohexyl-2-(3-imidazol-1-yl-propylamino)-5-oxo-5,8-dihydro-pyrido[2,3-d]pyrimidine-6-carboxylic acid methylamide]
inhibition at 0.1 µM: 10%
inhibition at 1 µM: 21%

CNC(=O)c1cn(-c2ccc3c(c2)CCC3)c2nc(NCCOC)ncc2c1=O [Cpd 16, 8-Indan-5-yl-2-(2-methoxy-ethylamino)-5-oxo-5,8-dihydro-pyrido[2,3-d]pyrimidine-6-carboxylic acid methylamide]
inhibition at 0.1 µM: 12%
inhibition at 1 µM: 39%

CNC(=O)c1cn(C2CCCCC2)c2nc(NCCCN(C)C)ncc2c1=O [Cpd 54, 8-Cyclohexyl-2-(3-dimethylamino-propylamino)-5-oxo-5,8-dihydro-pyrido[2,3-d]pyrimidine-6-carboxylic acid methylamide]
inhibition at 0.1 µM: 6%
inhibition at 1 µM: 26%

NC(=O)c1cn(C2CCCCC2)c2nc(NCCCN3CCOCC3)ncc2c1=O [Cpd 30, 8-Cyclohexyl-2-(3-morpholin-4-yl-propylamino)-5-oxo-5,8-dihydro-pyrido[2,3-d]pyrimidine-6-carboxylic acid amide]
inhibition at 0.1 µM: 24%
inhibition at 1 µM: 68%
